# Assays:
# [1] = target: BRD4 (Homo sapiens (Human), UniProt O60885); assay: TR-FRET in-vitro binding assay for BRD4; conditions: 45 nM His-Brd4(44-477), acetyl-histone H4 (AcK 5, 8, 12, 16) peptide
# Outline: (§1)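 Binding is detected by TR-FRET following incubation for 35 minutes at 30° C.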
# [2] = target: CREBBP (Homo sapiens (Human), UniProt Q92793); assay: AlphaScreen in-vitro binding assay for CREBBP; conditions: 324 nM His-CREBBP (1081-1197), acetyl-histone H4 (AcK 5, 8, 12) peptide
# Outline: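 IC50 values were derived by non-linear regression of percent inhibition across 8 compound concentrations. Protein was His-tagged CREBBP bromodomain (1081-1197), peptide acetyl-histone H4 (AcK 5, 8, 12), in HEPES pH 7.5 buffer. Read-out was AlphaScreen with Ni-chelate acceptor and streptavidin donor beads, 35 min at 30° C then 60 min at RT.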
# [3] = test system: K-562; assay: Cell growth inhibition assay (CellTiter-Glo), K-562; type: cell-based, human; conditions: K-562 cells, 4 days; for GI50: Homo sapiens, K562, 96 h, half-maximal growth inhibition; for K-562 TGI: total growth inhibition
# Outline: (§2)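 ATP content was quantified with CellTiter-Glo after 4-day compound treatment (top 10 μM, 3-fold steps) at 37 °C. Readings were background- and day-0-corrected, scaled so vehicle equals 100% and medium equals −100%. Four-parameter fits gave half-maximal (IC50) and total growth inhibition concentrations.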
# [4] = test system: THP-1; assay: Cell growth inhibition assay (CellTiter-Glo), THP-1; type: cell-based, human; conditions: THP-1 cells, 4 days; for GI50: Homo sapiens, 96 h, half-maximal growth inhibition; for THP-1 TGI: total growth inhibition
# Outline: as §2
# [5] = target: BRD3 (Homo sapiens (Human), UniProt Q15059); assay: TR-FRET in-vitro binding assay for BRD3; conditions: 45 nM His-Brd3(20-477), acetyl-histone H4 (AcK 5, 8, 12, 16) peptide
# BRD3, sequence (Q15059 20-477): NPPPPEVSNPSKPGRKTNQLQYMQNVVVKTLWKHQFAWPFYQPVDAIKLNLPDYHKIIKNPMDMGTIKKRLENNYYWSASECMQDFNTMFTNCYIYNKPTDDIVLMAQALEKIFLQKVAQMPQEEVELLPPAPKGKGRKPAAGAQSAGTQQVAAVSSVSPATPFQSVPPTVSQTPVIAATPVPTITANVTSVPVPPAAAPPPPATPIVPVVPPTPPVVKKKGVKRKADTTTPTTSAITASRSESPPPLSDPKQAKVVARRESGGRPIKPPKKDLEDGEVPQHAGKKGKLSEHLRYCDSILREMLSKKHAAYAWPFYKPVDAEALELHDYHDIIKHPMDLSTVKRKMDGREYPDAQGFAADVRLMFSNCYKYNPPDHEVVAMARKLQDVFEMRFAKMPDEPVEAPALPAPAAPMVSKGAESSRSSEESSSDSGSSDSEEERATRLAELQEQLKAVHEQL
# Outline: as §1
# [6] = test system: MV-4-11; assay: Cell growth inhibition assay (CellTiter-Glo), MV-4-11; type: cell-based, human; conditions: MV-4-11 cells, 4 days; for GI50: Homo sapiens, MV4-11, 96 h, half-maximal growth inhibition; for MV-4-11 TGI: total growth inhibition
# Outline: as §2
# CREBBP, sequence (Q92793 1081-1197): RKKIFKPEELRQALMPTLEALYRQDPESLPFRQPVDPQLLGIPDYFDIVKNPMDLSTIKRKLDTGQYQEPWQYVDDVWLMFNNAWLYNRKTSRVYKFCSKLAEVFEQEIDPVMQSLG
IC50 [1] [nM],IC50 [2] [nM],GI50 [3] [nM],GI50 [4] [nM],IC50 [5] [nM],GI50 [6] [nM],SMILES,K-562 TGI [3] [nM],THP-1 TGI [4] [nM],MV-4-11 TGI [6] [nM]
< 11,2800,37.5,6.03,11,5.14,"CCOC(=O)n1c(C2=CCOCC2)c(C)c2c1C(c1ccc(Cl)cc1)N(c1cc(C)c3nnc(C)n3c1)C2=O (stereo not drawn) [Example 123, Ethyl 6-(4-chlorophenyl)-2-(3,6-dihydro-2H-pyran-4-yl)-5-(3,8-dimethyl-[1,2,4]triazolo[4,3-a]pyridin-6-yl)-3-methyl-4-oxo-5,6-dihydropyrrolo[3,4-b]pyrrole-1(4H)-carboxylate]",>10000,13.5,9.695
11,1500,41.6,7.56,14,6.58,"CCOC(=O)n1c(-c2cccnc2OC)c(C)c2c1C(c1ccc(Cl)cc1)N(c1cc(C)c3nnc(C)n3c1)C2=O (stereo not drawn) [Example 124, Ethyl 6-(4-chlorophenyl)-5-(3,8-dimethyl-[1,2,4]triazolo[4,3-a]pyridin-6-yl)-2-(2-methoxypyridin-3-yl)-3-methyl-4-oxo-5,6-dihydropyrrolo[3,4-b]pyrrole-1(4H)-carboxylate]",>10000,15.8,13.2
15,13700,115,15,15,12.1,"CCOC(=O)n1cc(C2CC2)c2c1C(c1ccc(Cl)cc1)N(c1cc(C)c3nnc(C)n3c1)C2=O (stereo not drawn) [Example 125, Ethyl 6-(4-chlorophenyl)-3-cyclopropyl-5-(3,8-dimethyl-[1,2,4]triazolo[4,3-a]pyridin-6-yl)-4-oxo-5,6-dihydropyrrolo[3,4-b]pyrrole-1(4H)-carboxylate]",>10000,28.4,19.25

# Second part, the compound before the results:
SMILES,IC50 [1] [nM],IC50 [2] [nM],GI50 [3] [nM],GI50 [4] [nM],IC50 [5] [nM],GI50 [6] [nM],K-562 TGI [3] [nM],THP-1 TGI [4] [nM],MV-4-11 TGI [6] [nM]
"COc1ncccc1-c1c(C2CC2)c2c(n1C)C(c1ccc(Cl)cc1)N(c1cc(C)c3nnc(C)n3c1)C2=O (stereo not drawn) [Example 120, 6-(4-chlorophenyl)-3-cyclopropyl-5-(3,8-dimethyl-[1,2,4]triazolo[4,3-a]pyridin-6-yl)-2-(2-methoxypyridin-3-yl)-1-methyl-5,6-dihydropyrrolo[3,4-b]pyrrol-4(1H)-one]",< 11,1600,25.4,3.67,< 11,3.02,>7000,5.503,5.053
"Cc1cc(N2C(=O)c3cc(C4CCOCC4)n(C)c3C2c2ccc(Cl)cc2)cn2c(C)nnc12 (stereo not drawn) [Example 121, 6-(4-chlorophenyl)-5-(3,8-dimethyl-[1,2,4]triazolo[4,3-a]pyridin-6-yl)-1-methyl-2-(tetrahydro-2H-pyran-4-yl)-5,6-dihydropyrrolo[3,4-b]pyrrol-4(1H)-one]",56,640,164,44.7,44,54.9,>10000,86.2,89.3
"Cc1cc(N2C(=O)c3c(C4CC4)c(C)n(C)c3C2c2ccc(Cl)cc2)cn2c(C)nnc12 (stereo not drawn) [Example 122, 6-(4-chlorophenyl)-3-cyclopropyl-5-(3,8-dimethyl-[1,2,4]triazolo[4,3-a]pyridin-6-yl)-1,2-dimethyl-5,6-dihydropyrrolo[3,4-b]pyrrol-4(1H)-one]",12,4500,41,6.04,15,9.11,>7000,11.93,12.97

# — patent US9550796B2, “Pyrrolopyrrolone derivatives and their use as BET inhibitors” (NOVARTIS AG, priority 2013, dated 2017)
